According to PubChem BioAssay (NCI):
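A five-concentration, 48-hour dose response in 96-well plates underlies each endpoint, interpolated linearly between surrounding concentrations. Here, GI50 denotes the concentration required for 50% inhibition of growth. TGI denotes the concentration required for complete inhibition of growth.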

Assays:
Assay in all cases: DTP human tumour cell line panel, 48 h; in the data active = GI50 below about 0.43 µM; inactive = the rest
SK-MEL-28 melanoma = system: SK-MEL-28 melanoma
SN12C renal = system: SN12C renal
A549 NSCLC = system: A549 NSCLC
OVCAR-3 ovarian = system: OVCAR-3 ovarian
HOP-62 NSCLC = system: HOP-62 NSCLC
SK-MEL-5 melanoma = system: SK-MEL-5 melanoma
NCI-H522 lung = system: NCI-H522 lung
ACHN renal = system: ACHN renal
TK-10 renal = system: TK-10 renal
OVCAR-4 ovarian = system: OVCAR-4 ovarian
NCI-H23 lung = system: NCI-H23 lung
COLO 205 colon = system: COLO 205 colon
NCI-H460 lung = system: NCI-H460 lung
MALME-3M melanoma = system: MALME-3M melanoma
HOP-18 NSCLC = system: HOP-18 NSCLC
SW-620 colon = system: SW-620 colon
KM20L2 colon = system: KM20L2 colon
SF-295 CNS = system: SF-295 CNS
DLD-1 colon = system: DLD-1 colon
DMS 114 small cell lung = system: DMS 114 small cell lung
SF-539 CNS = system: SF-539 CNS
OVCAR-5 ovarian = system: OVCAR-5 ovarian
SNB-75 CNS = system: SNB-75 CNS
K-562 leukemia = system: K-562 leukemia
CAKI-1 renal = system: CAKI-1 renal
UO-31 renal = system: UO-31 renal
KM12 colon = system: KM12 colon
OVCAR-8 ovarian = system: OVCAR-8 ovarian
MOLT-4 leukemia = system: MOLT-4 leukemia
SF-268 CNS = system: SF-268 CNS
HT29 colon = system: HT29 colon
LOX IMVI melanoma = system: LOX IMVI melanoma
M14 melanoma = system: M14 melanoma
786-0 renal = system: 786-0 renal
HCT-15 colon = system: HCT-15 colon
M19-MEL melanoma = system: M19-MEL melanoma
UACC-62 melanoma = system: UACC-62 melanoma
SNB-19 CNS = system: SNB-19 CNS
UACC-257 melanoma = system: UACC-257 melanoma
IGROV1 ovarian = system: IGROV1 ovarian
HCC-2998 colon = system: HCC-2998 colon
LXFL 529 NSCLC = system: LXFL 529 NSCLC
HL-60(TB) leukemia = system: HL-60(TB) leukemia
CCRF-CEM leukemia = system: CCRF-CEM leukemia
HOP-92 NSCLC = system: HOP-92 NSCLC
U251 CNS = system: U251 CNS
RPMI-8226 leukemia = system: RPMI-8226 leukemia
EKVX NSCLC = system: EKVX NSCLC
SK-OV-3 ovarian = system: SK-OV-3 ovarian
RXF 393 renal = system: RXF 393 renal
SK-MEL-2 melanoma = system: SK-MEL-2 melanoma
DMS 273 small cell lung = system: DMS 273 small cell lung
NCI-H226 lung = system: NCI-H226 lung
HCT-116 colon = system: HCT-116 colon
A498 renal = system: A498 renal

N#CC1(C#N)C(c2ccc(C3C(C#N)(C#N)C3(C#N)C#N)cc2)C1(C#N)C#N
> 100 µM: TGI (SK-MEL-28 melanoma) | TGI (SN12C renal) | TGI (A549 NSCLC) | TGI (OVCAR-3 ovarian) | TGI (HOP-62 NSCLC) | TGI (SK-MEL-5 melanoma) | TGI (NCI-H522 lung) | TGI (ACHN renal) | TGI (TK-10 renal) | TGI (OVCAR-4 ovarian) | TGI (NCI-H23 lung) | TGI (COLO 205 colon) | TGI (NCI-H460 lung) | TGI (MALME-3M melanoma) | TGI (HOP-18 NSCLC) | TGI (SW-620 colon) | TGI (KM20L2 colon) | TGI (SF-295 CNS) | TGI (DLD-1 colon) | TGI (DMS 114 small cell lung) | TGI (SF-539 CNS) | TGI (OVCAR-5 ovarian) | TGI (SNB-75 CNS) | TGI (K-562 leukemia) | TGI (CAKI-1 renal) | TGI (UO-31 renal) | TGI (KM12 colon) | TGI (OVCAR-8 ovarian) | TGI (MOLT-4 leukemia) | TGI (SF-268 CNS) | TGI (HT29 colon) | TGI (LOX IMVI melanoma) | TGI (M14 melanoma) | TGI (786-0 renal) | TGI (HCT-15 colon) | TGI (M19-MEL melanoma) | TGI (UACC-62 melanoma) | TGI (SNB-19 CNS) | TGI (UACC-257 melanoma) | TGI (IGROV1 ovarian) | TGI (HCC-2998 colon) | TGI (LXFL 529 NSCLC) | TGI (HL-60(TB) leukemia) | TGI (CCRF-CEM leukemia) | TGI (HOP-92 NSCLC) | TGI (U251 CNS) | TGI (RPMI-8226 leukemia) | TGI (EKVX NSCLC) | TGI (SK-OV-3 ovarian) | TGI (RXF 393 renal) | TGI (SK-MEL-2 melanoma) | TGI (DMS 273 small cell lung)

C1C[OH+]CCNCC[OH+]CC[OH+]CCN1.O.[Cl-].[Pt+4]
inactive: GI50 (SK-MEL-28 melanoma) > 100 µM | GI50 (SN12C renal) > 100 µM | GI50 (A549 NSCLC) > 100 µM | GI50 (OVCAR-3 ovarian) > 100 µM | GI50 (HOP-62 NSCLC) > 100 µM | GI50 (SK-MEL-5 melanoma) > 100 µM | GI50 (ACHN renal) > 100 µM | GI50 (TK-10 renal) > 100 µM | GI50 (OVCAR-4 ovarian) > 100 µM | GI50 (COLO 205 colon) > 100 µM | GI50 (NCI-H460 lung) > 100 µM | GI50 (MALME-3M melanoma) > 100 µM | GI50 (NCI-H226 lung) > 100 µM | GI50 (HOP-18 NSCLC) > 100 µM | GI50 (SW-620 colon) > 100 µM | GI50 (KM20L2 colon) > 100 µM | GI50 (SF-295 CNS) > 100 µM | GI50 (DLD-1 colon) > 100 µM | GI50 (SF-539 CNS) > 100 µM | GI50 (SNB-75 CNS) > 100 µM | GI50 (K-562 leukemia) > 100 µM | GI50 (CAKI-1 renal) > 100 µM | GI50 (UO-31 renal) > 100 µM | GI50 (KM12 colon) > 100 µM | GI50 (HCT-116 colon) > 100 µM | GI50 (OVCAR-8 ovarian) > 100 µM | GI50 (MOLT-4 leukemia) > 100 µM | GI50 (SF-268 CNS) > 100 µM | GI50 (A498 renal) > 100 µM | GI50 (HT29 colon) > 100 µM | GI50 (LOX IMVI melanoma) > 100 µM | GI50 (M14 melanoma) > 10 µM | GI50 (786-0 renal) > 100 µM | GI50 (HCT-15 colon) > 100 µM | GI50 (UACC-62 melanoma) > 100 µM | GI50 (SNB-19 CNS) > 100 µM | GI50 (UACC-257 melanoma) > 100 µM | GI50 (IGROV1 ovarian) > 100 µM | GI50 (HCC-2998 colon) > 100 µM | GI50 (LXFL 529 NSCLC) > 100 µM | GI50 (HL-60(TB) leukemia) > 100 µM | GI50 (CCRF-CEM leukemia) > 100 µM | GI50 (HOP-92 NSCLC) > 10 µM | GI50 (U251 CNS) > 100 µM | GI50 (RPMI-8226 leukemia) > 100 µM | GI50 (SK-OV-3 ovarian) > 100 µM | GI50 (SK-MEL-2 melanoma) > 100 µM | GI50 (DMS 273 small cell lung) > 100 µM
> 10 µM: TGI (M14 melanoma) | TGI (HOP-92 NSCLC)
> 100 µM: TGI (SK-MEL-28 melanoma) | TGI (SN12C renal) | TGI (A549 NSCLC) | TGI (OVCAR-3 ovarian) | TGI (HOP-62 NSCLC) | TGI (SK-MEL-5 melanoma) | TGI (ACHN renal) | TGI (TK-10 renal) | TGI (OVCAR-4 ovarian) | TGI (COLO 205 colon) | TGI (NCI-H460 lung) | TGI (MALME-3M melanoma) | TGI (NCI-H226 lung) | TGI (HOP-18 NSCLC) | TGI (SW-620 colon) | TGI (KM20L2 colon) | TGI (SF-295 CNS) | TGI (DLD-1 colon) | TGI (SF-539 CNS) | TGI (SNB-75 CNS) | TGI (K-562 leukemia) | TGI (CAKI-1 renal) | TGI (UO-31 renal) | TGI (KM12 colon) | TGI (HCT-116 colon) | TGI (OVCAR-8 ovarian) | TGI (MOLT-4 leukemia) | TGI (SF-268 CNS) | TGI (A498 renal) | TGI (HT29 colon) | TGI (LOX IMVI melanoma) | TGI (786-0 renal) | TGI (HCT-15 colon) | TGI (UACC-62 melanoma) | TGI (SNB-19 CNS) | TGI (UACC-257 melanoma) | TGI (IGROV1 ovarian) | TGI (HCC-2998 colon) | TGI (LXFL 529 NSCLC) | TGI (HL-60(TB) leukemia) | TGI (CCRF-CEM leukemia) | TGI (U251 CNS) | TGI (RPMI-8226 leukemia) | TGI (SK-OV-3 ovarian) | TGI (SK-MEL-2 melanoma) | TGI (DMS 273 small cell lung)
